Numbered stars: 1 amine (or outer) side, 2 acyl side, 3 side chain; on linkers, the order of the positions; unused ones are H or OH. Bridge positions count the residues as written; N and C are the ends. Square brackets hold non-standard residues; d marks the D form. Peptide text beside a SMILES is read from it. I, II: the chains in the order shown. Actinocin(9to1) = Cc1c2oc3c(C)ccc(C(=O)[*:1])c3nc-2c(C(=O)[*:2])c(N)c1=O; NMeV = CN[C@H](C(=O)O)C(C)C; Sar = CNCC(=O)O
Assays:
Sf9 cells = assay: Resistance to induction of apoptosis by actinomycin D: cell survival; type: cell-based, Spodoptera frugiperda
Protocol: (§1) The cells were examined for resistance to induction of apoptosis by actinomycin D, as well as survival under conditions of nutrient deprivation. Sf9 cells or stably transfected lines Sf9^P35AcV5−1 and Sf9^P35AcV5−3 were incubated in medium containing 0.1 μg/ml actinomycin D for 1 hour, then placed in TNMFH medium.
(§2) Increasing doses of actinomycin D were tested to further examine the degree of resistance to this inducer of apoptosis. Sf9 or stably transfected cells expressing P35 were incubated in a range of concentrations of actinomycin D (0.01 to 0.5 μg/ml) for one hour, then placed in TNMFH and scored for cell survival after 1-4 days (Table 2).

Sf9P35AcV5-1 cells = assay: as above; type: cell-based, Spodoptera frugiperda
Protocol: as §1, §2

[1] = 0.01 μg/ml actinomycin D for one hour, Day 1
[2] = 0.01 μg/ml actinomycin D for one hour, Day 2
[3] = 0.01 μg/ml actinomycin D for one hour, Day 3
[4] = 0.01 μg/ml actinomycin D for one hour, Day 4
[5] = 0.025 μg/ml actinomycin D for one hour, Day 1
[6] = 0.025 μg/ml actinomycin D for one hour, Day 2
[7] = 0.025 μg/ml actinomycin D for one hour, Day 3
[8] = 0.025 μg/ml actinomycin D for one hour, Day 4
[9] = 0.05 μg/ml actinomycin D for one hour, Day 1
[10] = 0.05 μg/ml actinomycin D for one hour, Day 2
[11] = 0.05 μg/ml actinomycin D for one hour, Day 3
[12] = 0.05 μg/ml actinomycin D for one hour, Day 4
[13] = 0.075 μg/ml actinomycin D for one hour, Day 1
[14] = 0.075 μg/ml actinomycin D for one hour, Day 2
[15] = 0.075 μg/ml actinomycin D for one hour, Day 3
[16] = 0.075 μg/ml actinomycin D for one hour, Day 4
[17] = 0.1 μg/ml actinomycin D for 1 hour, then TNMFH medium, after three days
[18] = 0.1 μg/ml actinomycin D for one hour, Day 1

## Cc1c2oc3c(C)ccc(C(=O)N[C@@H]4C(=O)N[C@H](C(C)C)C(=O)N5CCC[C@H]5C(=O)N(C)CC(=O)N(C)[C@@H](C(C)C)C(=O)O[C@@H]4C)c3nc-2c(C(=O)N[C@@H]2C(=O)N[C@H](C(C)C)C(=O)N3CCC[C@H]3C(=O)N(C)CC(=O)N(C)[C@@H](C(C)C)C(=O)O[C@@H]2C)c(N)c1=O [Actinomycin D, actinomycin D] (I: T[dV]P[Sar][NMeV] / II: T[dV]P[Sar][NMeV]; ester I:1-I:C, II:1-II:C; linker I:N-II:N via Actinocin(9to1))
Sf9 cells; [1]
  Sf9 Cell Survival (Percentage): 100 Percentage
Sf9 cells; [2]
  Sf9 Cell Survival (Percentage): 100 Percentage
Sf9 cells; [3]
  Sf9 Cell Survival (Percentage): 100 Percentage
Sf9 cells; [4]
  Sf9 Cell Survival (Percentage): 100 Percentage
Sf9 cells; [5]
  Sf9 Cell Survival (Percentage): 100 Percentage
Sf9 cells; [6]
  Sf9 Cell Survival (Percentage): 100 Percentage
Sf9 cells; [7]
  Sf9 Cell Survival (Percentage): 100 Percentage
Sf9 cells; [8]
  Sf9 Cell Survival (Percentage): 100 Percentage
Sf9 cells; [9]
  Sf9 Cell Survival (Percentage): 100 Percentage
Sf9 cells; [10]
  Sf9 Cell Survival (Percentage): 100 Percentage
Sf9 cells; [11]
  Sf9 Cell Survival (Percentage): 100 Percentage
Sf9 cells; [12]
  Sf9 Cell Survival (Percentage): 100 Percentage
Sf9 cells; 0.075 μg/ml actinomycin D
  survival of Sf9 cells: 80-95%
Sf9 cells; [13]
  Sf9 Cell Survival (Percentage): 95 Percentage
Sf9 cells; [14]
  Sf9 Cell Survival (Percentage): 90 Percentage
Sf9 cells; [15]
  Sf9 Cell Survival (Percentage): 83 Percentage
Sf9 cells; [16]
  Sf9 Cell Survival (Percentage): 83 Percentage
Sf9 cells; 0.1 μg/ml actinomycin D
  survival of Sf9 cells: ≤ 5%
Sf9 cells; [17]
  survival of Sf9 cells: all Sf9 cells died
Sf9 cells; [18]
  Sf9 Cell Survival (Percentage): 13.7 Percentage
Sf9 cells; 0.1 μg/ml actinomycin D for one hour, Day 2
  Sf9 Cell Survival (Percentage): 8.6 Percentage
Sf9 cells; 0.1 μg/ml actinomycin D for one hour, Day 3
  Sf9 Cell Survival (Percentage): 3.7 Percentage
Sf9 cells; 0.1 μg/ml actinomycin D for one hour, Day 4
  Sf9 Cell Survival (Percentage): 0 Percentage
Sf9 cells; 0.25 μg/ml actinomycin D for one hour, Day 1
  Sf9 Cell Survival (Percentage): 4.5 Percentage
Sf9 cells; 0.25 μg/ml actinomycin D for one hour, Day 2
  Sf9 Cell Survival (Percentage): 3.6 Percentage
Sf9 cells; 0.25 μg/ml actinomycin D for one hour, Day 3
  Sf9 Cell Survival (Percentage): 0 Percentage
Sf9 cells; 0.25 μg/ml actinomycin D for one hour, Day 4
  Sf9 Cell Survival (Percentage): 0 Percentage
Sf9 cells; 0.5 μg/ml actinomycin D for one hour, Day 1
  Sf9 Cell Survival (Percentage): 0 Percentage
Sf9 cells; 0.5 μg/ml actinomycin D for one hour, Day 2
  Sf9 Cell Survival (Percentage): 0 Percentage
Sf9 cells; 0.5 μg/ml actinomycin D for one hour, Day 3
  Sf9 Cell Survival (Percentage): 0 Percentage
Sf9 cells; 0.5 μg/ml actinomycin D for one hour, Day 4
  Sf9 Cell Survival (Percentage): 0 Percentage
Sf9P35AcV5-1 cells; [1]
  Sf9P35AcV5-1 Cell Survival (Percentage): 100 Percentage
Sf9P35AcV5-1 cells; [2]
  Sf9P35AcV5-1 Cell Survival (Percentage): 100 Percentage
Sf9P35AcV5-1 cells; [3]
  Sf9P35AcV5-1 Cell Survival (Percentage): 100 Percentage
Sf9P35AcV5-1 cells; [4]
  Sf9P35AcV5-1 Cell Survival (Percentage): 100 Percentage
Sf9P35AcV5-1 cells; [5]
  Sf9P35AcV5-1 Cell Survival (Percentage): 100 Percentage
Sf9P35AcV5-1 cells; [6]
  Sf9P35AcV5-1 Cell Survival (Percentage): 100 Percentage
Sf9P35AcV5-1 cells; [7]
  Sf9P35AcV5-1 Cell Survival (Percentage): 100 Percentage
Sf9P35AcV5-1 cells; [8]
  Sf9P35AcV5-1 Cell Survival (Percentage): 100 Percentage
Sf9P35AcV5-1 cells; [9]
  Sf9P35AcV5-1 Cell Survival (Percentage): 100 Percentage
Sf9P35AcV5-1 cells; [10]
  Sf9P35AcV5-1 Cell Survival (Percentage): 100 Percentage
Sf9P35AcV5-1 cells; [11]
  Sf9P35AcV5-1 Cell Survival (Percentage): 100 Percentage
Sf9P35AcV5-1 cells; [12]
  Sf9P35AcV5-1 Cell Survival (Percentage): 100 Percentage
Sf9P35AcV5-1 cells; [13]
  Sf9P35AcV5-1 Cell Survival (Percentage): 100 Percentage
Sf9P35AcV5-1 cells; [14]
  Sf9P35AcV5-1 Cell Survival (Percentage): 100 Percentage
Sf9P35AcV5-1 cells; [15]
  Sf9P35AcV5-1 Cell Survival (Percentage): 100 Percentage
Sf9P35AcV5-1 cells; [16]
  Sf9P35AcV5-1 Cell Survival (Percentage): 100 Percentage
Sf9P35AcV5-1 cells; [17]
  survival of Sf9P35AcV5-1 cells: survived
Sf9P35AcV5-1 cells; [18]
  Sf9P35AcV5-1 Cell Survival (Percentage): 100 Percentage
